# Data as given in patent US20080187492A1, “Drosophila Models For Diseases Affecting Learning and Memory” (priority 2004, published 2008).
# System: flies heterozygous for the Drosophila presenilin gene
# Experiment: Learning during training in Drosophila model of Alzheimer's disease with reduced presenilin
# Format: in vivo
# Set-up: age dependent impairment in learning during training: dose or concentration left out as unconfirmed
# From the text: FIG. 10 is a graph showing the effect of MPEP on learning during training in a Drosophila model of Alzheimer's disease expressing reduced amounts of presenilin. All flies have reduced presenilin level. Black bars are 5 day old flies raised on kept on control food (N=18) which display learning during training (p<0.05). […] This impairment is prevented by treatment with MPEP.
# Using methods similar to those described in Examples 1 and 2, we evaluated the effect of MPEP on various aspects of learning and memory in a Drosophila model of Alzheimer's disease with reduced expression of presenilin.
# Flies in all three groups are heterozygous for the Drosophila presenilin gene. Each group has one wild type presenilin gene and one null presenilin gene, resulting from a deletion at the presenilin locus or a mutation at the presenilin locus. Learning during training was assayed in flies kept on control food until tested at five days of age, kept on control food until tested at 30 days of age or kept on control food for the first five days after eclosion then switched to food containing 200 μg/ml of MPEP until being moved back to control food the day before being tested at 30 days of age. […] This age-dependent deficit in learning during training is apparent in ten mutant presenilin Drosophila lines evaluated. In flies treated with MPEP, learning during training was restored at 30 days of age (p<0.05).
smiles,measurement,setting,value
"Cc1cccc(C#Cc2ccccc2)n1 [MPEP, 2-methyl-6-(phenylethynyl)pyridine]",age dependent impairment in learning during training,"30 day old, food supplemented MPEP from day 5",prevented
same,learning during training,"30 days of age, food containing 200 μg/ml of MPEP from day 5, p<0.05",restored
